The structures appear in SMILES notation.

The assay addresses T1, Human Polymorphonuclear Leukocyte Elastase (Homo sapiens, UniProt P08246).
T1 construct: Crude extract of human polymorphonuclear leukocytes (PMN) containing elastase activity; from tissue; host or cells: human polymorphonuclear leukocytes (crude extract)
T1 sequence (P08246 30-267): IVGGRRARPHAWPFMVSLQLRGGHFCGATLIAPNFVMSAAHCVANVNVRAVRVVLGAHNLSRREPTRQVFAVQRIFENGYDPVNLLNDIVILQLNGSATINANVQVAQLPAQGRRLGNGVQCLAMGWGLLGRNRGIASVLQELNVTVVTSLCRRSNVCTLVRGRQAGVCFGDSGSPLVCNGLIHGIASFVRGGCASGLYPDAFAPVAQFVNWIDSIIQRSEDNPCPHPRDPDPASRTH
In words: Enzyme assay for inhibition of human polymorphonuclear leukocyte elastase via hydrolysis of Boc-AAPAN or Boc-AAPVN. Format: biochemical. The note with it: pH 7.5, second order rate constant for inactivation of the enzyme, expressed to the nearest thousand, read-out: Kobs/[I]. Here is the method:
Enzyme Assays for the Inhibition of Human Polymorphonuclear Leukocyte Elastase Via Hydrolysis of N-t-Boc-alanyl-alanyl-prolylalanine-p-nitroanilide (Boc-AAPAN) or N-t-Boc-alanyl-prolylvaline-p-nitro-anilide (Boc-AAPVN) Reagent:
0.05M TES (N-tris[hydroxymethyl]methyl-2-mino-ethanesulfonic acid) Buffer, pH 7.5.
0.2 mM Boc-AAPAN or Boc-AAPVN.
To prepare substrate, the solid was first dissolved in 10.0 ml DMSO. Buffer at pH 7.5 was then added to a final volume of 100 ml.
Crude extract of human polymorphonuclear leukocytes (PMN) containing elastase activity.
Inhibitors (azetidinones) to be tested dissolved in DMSO just before use.
To 1.0 ml of 0.2 mM Boc-AAPAN in a cuvette, 0.01-0.1 ml of DMSO with or without inhibitor was added. After mixing, a measurement was taken at 410 mµ to detect any spontaneous hydrolysis due to presence of test compound. 0.05 Milliliters of PMN extract was then added and the ΔOD/min at 410 mµ was measured and recorded. Beckman model 35 spectrophotometer was used.
Results were expressed to the nearest thousand ^kobs/I which is the second order rate constant in per mole per second for inactivation of the enzyme.
The elastase activity in the crude PMN extract may vary from one preparation to another. A control of each new batch is run, and the volume added in the assay procedure is adjusted according to activity.
For `CCC[C@@H](NC(=O)N1C(=O)C(CC)(CC)[C@@H]1Oc1ccc(C(=O)OCC(=O)N(C)C)cc1)c1ccc(C)cc1` (relative stereo) [Compound 6, 2-(dimethylamino)-2-oxoethyl, (S-(R*,S*))-4-((3,3-Diethyl-1-(((1-(4-methyl-phenyl)butyl)amino)carbonyl)-4-oxo-2-azetidinyl)oxy)-benzoate], the kinact/KI worked out at 3e+06 M⁻¹ s⁻¹.

With `CCC[C@@H](NC(=O)N1C(=O)C(CC)(CC)[C@@H]1Oc1ccc(C(=O)OCCN(C)C(C)=O)cc1)c1ccc(C)cc1` (relative stereo) [Compound 7, 2-(N-methylacetamido)ethyl. {2-(R*,S*)}-4-{{3,3-Diethyl-1-{{{1-(4-methyl-phenyl)butyl}amino}carbonyl}-4-oxo-2-azetidinyl}oxy}-benzoate], the kinact/KI was determined as 1.56e+06 M⁻¹ s⁻¹. As to `CCC[C@@H](NC(=O)N1C(=O)C(CC)(CC)[C@@H]1Oc1ccc(C(=O)OCC(=O)N2CCC[C@H]2C(=O)O)cc1)c1ccc(C)cc1` (relative stereo) [Compound 9, (S(R*,S*))-1-(((4-((3,3-diethyl-1-(((1-(4-methylphenyl)butyl)amino)carbonyl)-4-oxo-2-azetidinyl)oxy)benzoyl)oxy)acetyl) L-proline], the kinact/KI was determined as 1.57e+06 M⁻¹ s⁻¹. The figure for `CCC[C@@H](NC(=O)N1C(=O)C(CC)(CC)[C@@H]1Oc1ccc(C(=O)O[C@@H](C)C(=O)OCc2ccccc2)cc1)c1ccc(C)cc1` (relative stereo) [Compound 10, 1-Methyl-2-oxo-2-(phenylmethoxy)ethyl(2S-(1(S*),R*,(R)))-4-((3,3-diethyl-1-(((1-(4-methylphenyl)butyl)amino)carbonyl)-4-oxo-2-azetidinyl)oxy) benzoate] is 2.89e+06 M⁻¹ s⁻¹. For the molecule `CCC[C@@H](NC(=O)N1C(=O)C(CC)(CC)[C@@H]1Oc1ccc(C(=O)N2CCN(C3CC3)CC2)cc1)c1ccc(C)cc1` (relative stereo) [Compound 256, [S(R*,S*)]-2-[4-[[(4-Cyclopropyl)piperazin-1-yl]carbonyl]phenoxy]-((3,3-diethyl-N-[1-(4-methylphenyl)butyl]-4-oxo-1-azetidinecarboxamide], the kinact/KI worked out at 3.59e+06 M⁻¹ s⁻¹.

`CCC[C@@H](NC(=O)N1C(=O)C(CC)(CC)[C@@H]1Oc1cc(C)c(C(=O)OCCN(C)C)c(C)c1)c1ccc(C)cc1` (relative stereo) [Compound 304, 2-(dimethylamino)ethyl [S,(R*,S*)]-4-[[3,3-diethyl-1-[[[1-(4-methylphenyl)butyl]amino]carbonyl]-4-oxo-2-azetidinyl]oxy]-2,6-dimethyl-benzoate]: the kinact/KI was 563000 M⁻¹ s⁻¹. The same measure for `CCCC(NC(=O)N1C(=O)C(CC)(CC)C1Oc1ccc(C(=O)OCCN(C)C)cc1)c1ccc(C)cc1` (stereo not drawn) [Compound 1, 2-(dimethylamino)ethyl (S-(R*,S*))-4-((3,3-diethyl-1-(((1-(4-methyl-phenyl)butyl)amino)carbonyl)-4-oxo-2-azetidinyl)oxy)benzoate]: 1.57e+06 M⁻¹ s⁻¹; for `CCCC(NC(=O)N1C(=O)C(CC)(CC)C1Oc1ccc(C(=O)OCC(=O)O)cc1)c1ccc(C)cc1` (stereo not drawn) [Compound 2, Carboxymethyl [S-(R*,S*)]4-((3,3-diethyl-1-(((1-(4-methyl-phenyl)butyl)amino)carbonyl)-4-oxo-2-azetidinyl)oxy)benzoate]: 1.67e+06 M⁻¹ s⁻¹.

Take `CCCC(NC(=O)N1C(=O)C(CC)(CC)C1Oc1ccc(C(=O)OCC(=O)N(CCO)CCO)cc1)c1ccc(C)cc1` (stereo not drawn) [Compound 3, 2-(bis(2-hydroxyethyl)amino)-2-oxoethyl(S-(R*,S*))-4-((3,3-diethyl-1-(((1-(4-methyl-phenyl)butyl)amino)carbonyl)-4-oxo-2-azetidinyl)oxy) benzoate]: the kinact/KI worked out at 3.43e+06 M⁻¹ s⁻¹. Turning to `CCC[C@@H](NC(=O)N1C(=O)C(CC)(CC)[C@@H]1Oc1ccc(C(=O)OCC(=O)N(C)CC(N)=O)cc1)c1ccc(C)cc1` [Compound 4], the kinact/KI was 4.29e+06 M⁻¹ s⁻¹. Turning to `CCC[C@@H](NC(=O)N1C(=O)C(CC)(CC)[C@@H]1Oc1ccc(C(=O)OCC(=O)NC(CO)(CO)CO)cc1)c1ccc(C)cc1` [Compound 5], the kinact/KI is 4.45e+06 M⁻¹ s⁻¹.

The record behind these values is patent publication EP0595557A1, “New substituted azetidinones as anti-inflammatory and antidegenerative agents” (MERCK & CO. INC., priority 1992, dated 1994).
